According to patent US11013717B1, “Methods and compositions for treating cancer using SERCA pump inhibitors” (priority 2018, dated 2021):

Tested on: CD8+ T-cells isolated from human PBMCs
Assay: Activation of anti-CD3/anti-CD28 stimulated CD8+ T-cells treated with SERCA inhibitors, cytokine release (IFNγ, TNFα) by intracellular staining flow cytometry
Type: cell-based
Conditions: for Fold Change % IFNγ+ Cells (Normalized to Bead Stimulated Only): overnight, anti-CD3/anti-CD28 bead stimulated human CD8+ T-cells; for T cell activation / interferon gamma (IFNγ) production / secretion by CD8+ T cells: human CD8+ T-cells stimulated with anti-CD3/anti-CD28 beads, overnight incubation, thapsigargin 1.5 μM, cyclopiazonic acid 3 μM, NS-1619 30-100 μM; for T cell activation: activation measured by cytokine release
Method: CD8+ T-cells were isolated from human PBMCs using negative magnetic bead selection (Stemcell Technologies). Cells stimulated with anti-CD3/anti-CD28 beads (Life Technologies) and were treated with different SERCA inhibitors: thapsigargin (1.5 μM), cyclopiazonic acid (3 μM), and NS-1619 (30-100 μM). All incubations were done overnight. Subsequent activation was measured by cytokine release using intracellular staining flow cytometry of IFNγ and TNFα, using fluorescently labeled antibodies (Biolegend).

Row | Structure (SMILES) | Fold Change % IFNγ+ Cells (Normalized to Bead Stimulated Only) (30 μM) [fold] | Fold Change % IFNγ+ Cells (Normalized to Bead Stimulated Only) (100 μM) [fold] | T cell activation | interferon gamma (IFNγ) production / secretion by CD8+ T cells | Fold Change % IFNγ+ Cells (Normalized to Bead Stimulated Only) (3 μM) [fold] | Fold Change % IFNγ+ Cells (Normalized to Bead Stimulated Only) (1.5 μM) [fold]
1 | O=c1[nH]c2cc(C(F)(F)F)ccc2n1-c1cc(C(F)(F)F)ccc1O [NS-1619] | 1.1 | 2.68 | led to T cell activation | increased |  | 
2 | CC(=O)C1=C(O)[C@@H]2[C@H]3c4c[nH]c5cccc(c45)C[C@H]3C(C)(C)N2C1=O [cyclopiazonic acid] |  |  |  |  | 2.38 | 
3 | C/C=C(/C)C(=O)O[C@H]1C(C)=C2[C@H]([C@@H]1OC(=O)CCCCCCC)[C@@](C)(OC(C)=O)C[C@H](OC(=O)CCC)[C@@]1(O)[C@H]2OC(=O)[C@@]1(C)O [thapsigargin] |  |  | led to T cell activation | increased |  | 2.08
